“Also recorded” adds a separate entry of the source. Where a name gives a salt, the structure may show the parent alone.
Tests used:
[1] = biological target: angiotensin-converting enzyme (Homo sapiens, UniProt P12821); settings: cited from earlier work
HeLa cells = settings: Quercetin pretreatment; cited from earlier work
[2] = tested on: AMP-activated protein kinase (AMPK); settings: HepG2 cells; cited from earlier work
[3] = P<0.05; cited from earlier work
[4] = biological target: human lens aldose reductase (Homo sapiens, UniProt P15121); settings: cited from earlier work
db/db mice [5] = assay: Acute effect of test compounds on plasma glucose levels in db/db mice; format: in vivo
Method: (§1) Db/db mice were acclimatized to dosing and exposed to tail cut and r.o.p bleeding. Animals were grouped based on plasma glucose, triglyceride and cholesterol values. Acute effect of test compound on plasma glucose levels determined 3 hrs post dosing followed by administration of test compound for 21 days. After 14 days treatment, 4 hrs fasting plasma glucose levels were measured. After 21 days treatment, 4 hrs fasting plasma glucose levels were measured followed by test compound administration and measurement of plasma glucose levels 3 hrs post dosing.
(§2) Kits: Plasma glucose, cholesterol and triglyceride were measured using Dade Behring auto analyzer. Plasma insulin values measured using Rat/mouse insulin ELISA kit (Millipore, lot no 16006280). Tail cut method plasma glucose values measured using Contour TS glucometer strips (Lot WK8MD3E32A).
(§3) Compounds and Vehicle: All test-compounds were formulated in tween CMC (10% of 2.5% tween 80+90% of 0.25% CMC) and prepared daily about 1 hr before administration. Animals were dosed for 21 days through oral gavage at dose volume of 10 ml/kg body weight.
On the day of initiating study animals were fasted for 4 hrs and plasma glucose was measured with Glucometer by tail cut method. Animals were dosed with test compound/vehicle according to their body weight and 3 hrs post dosing plasma glucose levels were measured with Glucometer Immediately animals were provided with measured amount of feed.
Acute effect percent reduction in PG was calculated for each animal using the formula
{(0 hr PG−test hr PG)/0 hr PG}×100
(§4) Statistics were applied using One-Way ANOVA followed by Dunnett's test using sigma stat software.

db/db mice [6] = assay: Chronic effect on plasma profile (PG, TC, TG), 4 hrs fasted, before dosing, in db/db mice; format: in vivo
Method: as §1, §2, §3
(§5) Animals were dosed daily at around 10 AM to 11 AM with corresponding test compounds/vehicle at a volume of 10 ml/kg of body weight. Body weight, water intake and food intake was measured daily. After 14 days treatment plasma profile (PG, TG & TC) was measured in 4 hrs fasted animals. On that day animals were dosed post bleeding after keeping feed at 4 PM. After 21 days treatment plasma profile (PG, TG & TC) was measured in 4 hrs fasted animals. After bleeding, animals were administered with test compounds/vehicle and plasma glucose was measured 3 hrs post dosing with Glucometer. Immediately animals were provided with feed.
(§6) Blood samples from r.o.p bleeding were collected in micro centrifuge tubes containing 5 ul of EDTA Na ([…]). Plasma separated by centrifuging blood samples at 6000 rpm at 40 C for 5 minutes. Plasma glucose, total cholesterol and triglyceride were measured using Dade Bhering auto analyser. Plasma insulin was measured (in duplicate samples), using Millipore mouse/rat insulin ELISA kit.
(§7) The percent reduction in plasma profile parameters were calculated using the formula 1−(tt/tc)/bt/bc)×100; where tt: test day treated group mean value of the parameter; tc: test day control group mean value of the parameter; bc: Basal Control group mean value; bt: Basal treated group mean value.
as §4

db/db mice [7] = assay: Chronic effect (21 days) on plasma glucose 3 hrs post dosing in db/db mice; format: in vivo
Method: as §1, §2, §3, §5, §7, §4

db/db mice [8] = assay: Chronic effect on plasma insulin levels in db/db mice; format: in vivo; parameters: % Reduction in plasma insulin / % Reduction@ in plasma insulin: concentration or dose not given beside the values
Method: as §2, §3, §5, §6, §7, §4

[9] = Chronic effect on body weight in db/db mice; format: in vivo; settings: Mean ± SEM
Method: as §3, §5, §4

[10] = 14 days 300 mg/kg once daily per oral, 4 hr fasting, pre dosing
[11] = 14 days 300 mg/kg once daily, adjusted for control and basal
[12] = 21 days 300 mg/kg once daily per oral, 4 hr fasting, predosing
[13] = 21 days 300 mg/kg once daily, post 4 hrs fasting, without dosing on the day
[14] = basal, 4 hrs fasted, before treatment, Mean ± SEM

angiotensin-converting enzyme, sequence (P12821 30-1306, species assumed): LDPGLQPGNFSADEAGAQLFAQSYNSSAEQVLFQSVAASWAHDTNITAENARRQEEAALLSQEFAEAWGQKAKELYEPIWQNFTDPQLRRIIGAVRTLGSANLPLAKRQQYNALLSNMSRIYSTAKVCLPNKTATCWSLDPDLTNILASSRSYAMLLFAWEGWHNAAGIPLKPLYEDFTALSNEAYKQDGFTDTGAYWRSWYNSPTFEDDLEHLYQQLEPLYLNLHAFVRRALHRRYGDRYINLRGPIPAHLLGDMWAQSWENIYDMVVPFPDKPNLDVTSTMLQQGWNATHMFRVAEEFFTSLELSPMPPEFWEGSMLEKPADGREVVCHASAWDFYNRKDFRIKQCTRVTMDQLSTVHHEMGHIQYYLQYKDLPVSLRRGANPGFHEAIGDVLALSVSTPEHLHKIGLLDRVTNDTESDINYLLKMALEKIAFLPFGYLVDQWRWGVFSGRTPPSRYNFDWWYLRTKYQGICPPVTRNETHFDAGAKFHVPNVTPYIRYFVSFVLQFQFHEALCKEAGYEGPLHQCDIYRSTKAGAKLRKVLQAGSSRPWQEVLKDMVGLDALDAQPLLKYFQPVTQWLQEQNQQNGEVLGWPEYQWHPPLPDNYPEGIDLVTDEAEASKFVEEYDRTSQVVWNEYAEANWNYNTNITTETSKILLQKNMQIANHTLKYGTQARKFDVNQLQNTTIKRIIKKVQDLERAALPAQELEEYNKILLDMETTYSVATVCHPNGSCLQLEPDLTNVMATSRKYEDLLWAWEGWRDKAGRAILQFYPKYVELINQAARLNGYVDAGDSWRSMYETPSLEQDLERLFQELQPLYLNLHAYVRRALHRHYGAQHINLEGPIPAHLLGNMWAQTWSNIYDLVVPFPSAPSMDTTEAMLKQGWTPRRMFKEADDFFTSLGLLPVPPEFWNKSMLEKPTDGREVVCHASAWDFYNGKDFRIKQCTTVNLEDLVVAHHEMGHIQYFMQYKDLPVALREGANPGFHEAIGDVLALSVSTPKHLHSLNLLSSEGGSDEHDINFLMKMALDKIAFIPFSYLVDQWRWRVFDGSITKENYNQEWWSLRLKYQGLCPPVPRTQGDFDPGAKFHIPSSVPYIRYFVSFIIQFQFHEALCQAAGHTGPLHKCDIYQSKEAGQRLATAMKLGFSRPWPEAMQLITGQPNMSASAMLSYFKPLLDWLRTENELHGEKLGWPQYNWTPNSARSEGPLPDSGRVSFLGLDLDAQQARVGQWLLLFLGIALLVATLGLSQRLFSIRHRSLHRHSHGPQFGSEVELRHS

O=c1c(O)c(-c2ccc(O)c(O)c2)oc2cc(O)cc(O)c12 [Quercetin]
hypotensive effect of bradykinin ([1]; pretreatment 88.7 μmol/kg p.o., 45 min, 14.7 μmol/kg i.v., 5 min, bradykinin 10 nmol/kg i.v.): significantly potentiated | hypertensive response to angiotensin I ([1]; same pretreatment, angiotensin I 0.1 nmol/kg iv): significantly reduced | cisplatin-induced apoptosis in HeLa cells (HeLa cells): sensitizes | AMPK phosphorylation [2]: increased | mRNA expression of PGC-1alpha and SIRT1, mtDNA and cytochrome C concentration [3]: increased | maximal endurance capacity and voluntary wheel running activity [3]: increase | inhibition of human lens aldose reductase [4]: strong inhibitor

CN(C)C(=N)N=C(N)N [ILB-MCO-0906Q, Metformin hydrochloride]
% Reduction in plasma glucose (acute) (db/db mice [5]; 0 hr vs 3 hr post single dose 300 mg/kg per oral, Mean ± SEM): 52 ± 4 % | 3 Hr plasma glucose (db/db mice [5]; 3 hrs post single dose 300 mg/kg per oral, Mean ± SEM): 181 ± 25 mg/dL | 0 Hr plasma glucose (db/db mice [5]; 4 hrs fasted, before dosing, 300 mg/kg per oral group, Mean ± SEM): 373 ± 43 mg/dL | plasma glucose levels 3 hrs post dosing with single dose (in words) (db/db mice [5]; acute administration, 300 mg/kg, vs control group, hydrochloride, 300 mg/kg): Significant lowering; also recorded: significant reduction | 14th day PG (db/db mice [6]; [10]): 443.33 ± 40.27 mg/dL | 14th day TC (db/db mice [6]; [10]): 144.51 ± 4.61 mg/dL | 14th day TG (db/db mice [6]; [10]): 114.11 ± 4.76 mg/dL | % Red PG, 14th day (db/db mice [6]; [11]): 3% | % Red TC, 14th day (db/db mice [6]; [11]): 6% | % Red TG, 14th day (db/db mice [6]; [11]): 17% | 21st day PG (db/db mice [6]; [12]): 400.80 ± 42.77 mg/dL | 21st day TC (db/db mice [6]; [12]): 157.86 ± 8.76 mg/dL | 21st day TG (db/db mice [6]; [12]): 127.00 ± 5.65 mg/dL | % Red PG, 21st day (db/db mice [6]; 21 days 300 mg/kg once daily, adjusted for control and basal): 7% | % Red TC (plasma cholesterol), 21st day (db/db mice [6]; [13]): 11% | % Red TG (plasma triglyceride), 21st day (db/db mice [6]; [13]): 28% | Basal PG (db/db mice [6]; [14]): 402.43 ± 26.13 mg/dL | Basal TC (db/db mice [6]; [14]): 155.90 ± 5.08 mg/dL | Basal TG (db/db mice [6]; [14]): 136.10 ± 5.39 mg/dL | 4 hrs fasting plasma glucose levels after 21 days treatment (in words) (db/db mice [6]; chronic treatment 21 days, 300 mg/kg): did not show significant reduction | plasma glucose levels 3 hrs post dosing after 21 days treatment followed by administration on day 21 (in words) (db/db mice [7]; 300 mg/kg, hydrochloride): significant lowering; also recorded: significant reduction | % Red PG, 21th day 3 hr post dosing (db/db mice [7]; 21 days 300 mg/kg once daily, then dose, 3 hrs post dosing): 44% | 21th day 3 hr post dosing PG (db/db mice [7]; 21 days 300 mg/kg once daily, then dose, 3 hrs post dosing, Mean ± SEM): 200 ± 31 mg/dL | % Reduction@ in plasma insulin (db/db mice [8]; 21th day, calculated after adjusting for control group change): 28% | 21th day insulin (db/db mice [8]; 21 days 300 mg/kg once daily, 4 hr fasting, predosing): 3.82 ± 0.72 ng/mL | % Reduction in plasma insulin (db/db mice [8]; basal vs 21th day, Mean ± SEM): 15.32 ± 7.16% | Basal insulin (db/db mice [8]; basal, before treatment, Mean ± SEM): 4.42 ± 0.63 ng/mL | Final day Body weight ([9]; after 21 days 300 mg/kg once daily): 45.1 ± 0.6 g | % Increase in body weight ([9]; basal to final day): 14.5 ± 0.9% | Basal Body weight ([9]; basal): 38.5 ± 0.5 g

Oc1ccc(C=Cc2cc(O)cc(O)c2)cc1 [resveratrol]
AMPK phosphorylation [2]: increased

— patent US20120258170A1, “PHARMACEUTICAL CO-CRYSTALS OF QUERCETIN” (Nutracryst Therapeutics Private Limited, priority 2009, published 2012)
